Assays:
Assay type in all cases: in vivo
Puccinia triticina = test: Wheat brown rust (PUCCRT) disease control on wheat seedlings; set-up: key to PUCCRT 3DC, HV activity at 100 ppm (% control rating) / PUCCRT disease control, 3DC / PUCCRT 1DP disease control rating, HV activity / PUCCRT 3DC disease control rating, HV activity / PUCCRT 3DC, LV activity at 125.1 g/H (% Control rating) / PUCCRT 1DP, LV activity at 125.1 g/H (% Control rating) / PUCCRT 3DC disease control rating, LV activity at 125.1 g/H / PUCCRT 1DP disease control rating, LV activity at 125.1 g/H / PUCCRT 3DC disease control rating, HV activity at 100 ppm / PUCCRT 1DP disease control rating, HV activity at 100 ppm / HV activity at 100 ppm PUCCRT 3DC (disease control rating) / LV activity at 125.1 g/H PUCCRT 1DP (disease control rating) / LV activity at 125.1 g/H PUCCRT 3DC (disease control rating): A: > 80; B: ≤ 80; C: Not Tested; D: No Activity Observed in the Reported Assay; conditions: low volume application, 125.1 g/H; for PUCCRT 1DP, LV activity at 125.1 g/H (% Control rating): 1 Day Protectant; for PUCCRT 3DC, LV activity at 125.1 g/H (% Control rating): 3 Day Curative
Zymoseptoria tritici = test: Leaf blotch of wheat (SEPTTR) disease control on wheat seedlings; conditions: low volume application, 125.1 g/H; for SEPTTR 1DP, LV activity at 125.1 g/H (% Control rating): 1 Day Protectant; for SEPTTR 3DC, LV activity at 125.1 g/H (% Control rating): 3 Day Curative
Alternaria solani = test: Tomato early blight (ALTESO) disease control; conditions: 100 ppm, 1 Day Protectant
Method: All fungicides were evaluated using the aforementioned method for their activity vs. all target diseases, unless stated otherwise. Wheat leaf blotch and brown rust activity were also evaluated using track spray applications, in which case the fungicides were formulated as EC formulations, containing 0.1% Trycol 5941 in the spray solutions. Wheat plants (variety Yuma) were grown from seed in a greenhouse in 50% mineral soil/50% soil-less Metro mix until the first leaf was fully emerged, with 7-10 seedlings per pot. These plants were inoculated with an aqueous spore suspension of Zymoseptoria tritici either prior to or after fungicide treatments. After inoculation the plants were kept in 100% relative humidity (one day in a dark dew chamber followed by two to three days in a lighted dew chamber at 20° C.) to permit spores to germinate and infect the leaf. The plants were then transferred to a greenhouse set at 20° C. for disease to develop. When disease symptoms were fully expressed on the 1st leaves of untreated plants, infection levels were assessed on a scale of 0 to 100 percent disease severity. Percent disease control was calculated using the ratio of disease severity on treated plants relative to untreated plants. Example J: Evaluation of Fungicidal Activity: Tomato Early Blight (Alternaria solani; Bayer Code […]) Tomato plants (variety Outdoor Girl) were propagated in soil-less Metro mix, with each pot having one plant, and used when 12 to 14 days old. Test plants were inoculated with an aqueous spore suspension of Alternaria solani 24 hr after fungicide treatments. After inoculation the plants were kept in a dew room at 22° C. with 100% relative humidity for 48 h to permit spores to germinate and infect the leaf. The plants were then transferred to a growth room at 22° C. for disease to develop. Fungicide formulation, application and disease assessment on the sprayed leaves followed the procedures as described in the Example A.

| SMILES | PUCCRT 1DP, LV activity at 125.1 g/H (% Control rating) (Puccinia triticina) | PUCCRT 3DC, LV activity at 125.1 g/H (% Control rating) (Puccinia triticina) | SEPTTR 1DP, LV activity at 125.1 g/H (% Control rating) (Zymoseptoria tritici) | SEPTTR 3DC, LV activity at 125.1 g/H (% Control rating) (Zymoseptoria tritici) | ALTESO disease control, 1DP (Alternaria solani) |
| --- | --- | --- | --- | --- | --- |
| COc1ccnc(C(=O)N[C@@H](C)C(=O)O[C@H](C)[C@@H](Oc2ccccc2)c2ccccc2)c1OCOC(C)=O [Cmpd 547] | A (> 80) | A (> 80) | A (> 80) | A (> 80) | B (≤ 80) |
| COc1ccnc(C(=O)N[C@H](C)C(=O)O[C@H](C)[C@@H](Oc2ccccc2)C(C)C)c1OCOC(C)=O [Cmpd 548] | D | D | B (≤ 80) | B (≤ 80) | B (≤ 80) |
| COc1ccnc(C(=O)N[C@H](C)C(=O)O[C@H](C)[C@@H](Oc2ccccc2)c2ccccc2)c1OCOC(C)=O [Cmpd 549] | D | D | B (≤ 80) | B (≤ 80) | B (≤ 80) |
| COc1ccnc(C(=O)N[C@@H](C)C(=O)O[C@@H](C)[C@@H](Oc2ccccc2)C(C)C)c1OCOC(C)=O [Cmpd 552] | A (> 80) | A (> 80) | A (> 80) | A (> 80) | B (≤ 80) |
| COc1ccnc(C(=O)N[C@@H](C)C(=O)O[C@@H](C)[C@H](Oc2ccccc2)C2CCCC2)c1OCOC(C)=O [Cmpd 556] | A (> 80) | A (> 80) | A (> 80) | A (> 80) | B (≤ 80) |
| COc1ccnc(C(=O)N[C@@H](C)C(=O)O[C@@H](C)[C@@H](CC(C)C)Oc2ccccc2)c1OCOC(C)=O [Cmpd 557] | A (> 80) | A (> 80) | A (> 80) | A (> 80) | B (≤ 80) |
| COc1ccnc(C(=O)N[C@H](C)C(=O)O[C@@H](C)[C@H](Oc2ccccc2)C(C)C)c1OCOC(C)=O [Cmpd 558] | D | B (≤ 80) | B (≤ 80) | B (≤ 80) | B (≤ 80) |
| COc1ccnc(C(=O)N[C@H](C)C(=O)O[C@@H](C)[C@@H](Oc2ccccc2)C(C)C)c1OCOC(C)=O [Cmpd 559] | D | D | B (≤ 80) | A (> 80) | B (≤ 80) |
| COc1ccnc(C(=O)N[C@H](C)C(=O)O[C@H](C)[C@H](Oc2ccccc2)C(C)C)c1OCOC(C)=O [Cmpd 560] | D | D | B (≤ 80) | B (≤ 80) | B (≤ 80) |

From patent US20180000085A1, “USE OF PICOLINAMIDE COMPOUNDS WITH FUNGICIDAL ACTIVITY” (DOW AGROSCIENCES LLC, priority 2014, published 2018)
